Laboratory results taken from patent US20240109918A1, “HETEROCYCLIC COMPOUNDS AND USES THEREOF” (Kumquat Biosciences Inc., priority 2022, published 2024).
pIC50: −log10 of the molar value.

Columns and labels:
KRASwt = target: T1, KRASwt (Homo sapiens, UniProt P01116); test: Bio-Biochem-PPI-HTRF Ras-SOS1 interaction assay (KRAS wt); type: biochemical; conditions: 5 nM
T1 construct: made in house; host or cells: E. coli BL21 (DE3)
Outline: (§1)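 Inhibition of His-hSOS1 binding to GST-tagged wild-type or G12D K-Ras is read as HTRF ratio (665/620 nm) following incubation of about 10 minutes or longer, and IC50 values are fitted from duplicate six-point titrations.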

KRASG12D = target: T2, KRASG12D (Homo sapiens, UniProt P01116, G12D); test: Bio-Biochem-PPI-HTRF Ras-SOS1 interaction assay (KRAS G12D); type: biochemical; conditions: 5 nM
T2 construct: made in house; host or cells: E. coli BL21 (DE3)
Outline: as §1

T1 sequence (P01116 1-188 isoform P01116-2): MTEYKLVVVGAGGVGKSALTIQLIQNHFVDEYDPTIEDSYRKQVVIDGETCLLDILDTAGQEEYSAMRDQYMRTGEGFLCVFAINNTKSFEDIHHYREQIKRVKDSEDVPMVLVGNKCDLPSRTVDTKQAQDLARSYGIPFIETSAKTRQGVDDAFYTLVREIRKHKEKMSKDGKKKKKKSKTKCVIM
T2 sequence (P01116 1-188 isoform P01116-2 G12D): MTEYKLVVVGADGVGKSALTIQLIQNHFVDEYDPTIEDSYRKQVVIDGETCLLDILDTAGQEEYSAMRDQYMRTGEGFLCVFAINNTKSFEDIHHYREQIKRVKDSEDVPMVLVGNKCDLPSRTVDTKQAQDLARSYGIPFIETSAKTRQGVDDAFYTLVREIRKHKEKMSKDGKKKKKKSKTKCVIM

SMILES | pIC50 (KRASwt) | pIC50 (KRASG12D)
COc1cc(C(=O)N2CC3(CCCCN(c4nc(OC[C@@]56CCCN5C[C@H](F)C6)nc5c(F)c(-c6ccc(F)c7sc(N)c(C#N)c67)c(Cl)cc45)C3)C2)n(C)n1 [compound 258, 2-amino-4-(6-chloro-8-fluoro-2-(((2R,7aS)-2-fluorotetrahydro-1H-pyrrolizin-7a(5H)-yl)methoxy)-4-(2-(3-methoxy-1-methyl-1H-pyrazole-5-carbonyl)-2,6-diazaspiro[3.6]decan-6-yl)quinazolin-7-yl)-7-fluorobenzo[b]thiophene-3-carbonitrile] | > 5.30 | > 5.30
N#Cc1c(N)sc2c(F)ccc(-c3c(Cl)cc4c(N5CCN(CC6CC6)C6(CN(C(=O)C(F)F)C6)C5)nc(OC[C@@]56CCCN5C[C@H](F)C6)nc4c3F)c12 [compound 346, 2-amino-4-(6-chloro-4-(5-(cyclopropylmethyl)-2-(2,2-difluoroacetyl)-2,5,8-triazaspiro[3.5]nonan-8-yl)-8-fluoro-2-(((2R,7aS)-2-fluorotetrahydro-1H-pyrrolizin-7a(5H)-yl)methoxy)quinazolin-7-yl)-7-fluorobenzo[b]thiophene-3-carbonitrile] | > 5.30 | > 5.30
N#Cc1c(N)sc2c(F)ccc(-c3c(Cl)cc4c(N5CCC(F)(F)CC6(CN(C(=O)C78CC(F)(C7)C8)C6)C5)nc(OC[C@@]56CCCN5C[C@H](F)C6)nc4c3F)c12 [compound 229, 2-amino-4-(6-chloro-4-(9,9-difluoro-2-(3-fluorobicyclo[1.1.1]pentane-1-carbonyl)-2,6-diazaspiro[3.6]decan-6-yl)-8-fluoro-2-(((2R,7aS)-2-fluorotetrahydro-1H-pyrrolizin-7a(5H)-yl)methoxy)quinazolin-7-yl)-7-fluorobenzo[b]thiophene-3-carbonitrile] | > 5.30 | > 5.30
N#Cc1c(N)sc2c(F)ccc(-c3c(Cl)cc4c(N5CCCCC6(CN(C(=O)C(F)(F)C(F)(F)F)C6)C5)nc(OC[C@@]56CCCN5C[C@H](F)C6)nc4c3F)c12 [compound 202, 2-amino-4-(6-chloro-8-fluoro-2-(((2R,7aS)-2-fluorotetrahydro-1H-pyrrolizin-7a(5H)-yl)methoxy)-4-(2-(2,2,3,3,3-pentafluoropropanoyl)-2,6-diazaspiro[3.6]decan-6-yl)quinazolin-7-yl)-7-fluorobenzo[b]thiophene-3-carbonitrile] | > 5.30 | > 5.30
N#Cc1c(N)sc2c(F)ccc(-c3c(Cl)cc4c(N5CCCCC6(CN(C(=O)[C@]78COC[C@H]7C8(F)F)C6)C5)nc(OC[C@@]56CCCN5C[C@H](F)C6)nc4c3F)c12 [compound 240, 2-amino-4-(6-chloro-4-(2-((1R,5S)-6,6-difluoro-3-oxabicyclo[3.1.0]hexane-1-carbonyl)-2,6-diazaspiro[3.6]decan-6-yl)-8-fluoro-2-(((2R,7aS)-2-fluorotetrahydro-1H-pyrrolizin-7a(5H)-yl)methoxy)quinazolin-7-yl)-7-fluorobenzo[b]thiophene-3-carbonitrile] | > 5.30 | > 5.30
N#Cc1c(N)sc2c(F)ccc(-c3c(Cl)cc4c(N5CC(F)CCC6(CN(C(=O)[C@@H]7CC7(F)F)C6)C5)nc(OC[C@@]56CCCN5C[C@H](F)C6)nc4c3F)c12 (stereo partly drawn) [compound 269, 2-amino-4-(6-chloro-4-(2-((S)-2,2-difluorocyclopropane-1-carbonyl)-8-fluoro-2,6-diazaspiro[3.6]decan-6-yl)-8-fluoro-2-(((2R,7aS)-2-fluorotetrahydro-1H-pyrrolizin-7a(5H)-yl)methoxy)quinazolin-7-yl)-7-fluorobenzo[b]thiophene-3-carbonitrile] | > 5.30 | > 5.30
CN1CCC[C@H]1COc1nc(N2CCOC3(CNC3)C2)c2cc(Cl)c(-c3ccc(F)c4sc(N)c(C#N)c34)c(F)c2n1 (single isomer, unassigned) [compound 114] | > 5.30 | > 5.30
N#Cc1c(N)sc2c(F)ccc(-c3c(Cl)cc4c(N5CCCCC6(CN(C(=O)COC(F)(F)C(F)(F)F)C6)C5)nc(OC[C@@]56CCCN5C[C@H](F)C6)nc4c3F)c12 [compound 302, 2-amino-4-(6-chloro-8-fluoro-2-(((2R,7aS)-2-fluorotetrahydro-1H-pyrrolizin-7a(5H)-yl)methoxy)-4-(2-(2-(perfluoroethoxy)acetyl)-2,6-diazaspiro[3.6]decan-6-yl)quinazolin-7-yl)-7-fluorobenzo[b]thiophene-3-carbonitrile] | > 5.30 | > 5.30

Further lines, results first:

pIC50 (KRASwt) | pIC50 (KRASG12D) | SMILES
> 5.30 | > 5.30 | CN(C)C/C=C/C(=O)N1CC2(C1)CN(c1nc(OC[C@@]34CCCN3C[C@H](F)C4)nc3c(F)c(-c4ccc(F)c5sc(N)c(C#N)c45)c(Cl)cc13)CCO2 [compound 185, 2-amino-4-(6-chloro-4-(2-((E)-4-(dimethylamino)but-2-enoyl)-5-oxa-2,8-diazaspiro[3.5]nonan-8-yl)-8-fluoro-2-(((2R,7aS)-2-fluorotetrahydro-1H-pyrrolizin-7a(5H)-yl)methoxy)quinazolin-7-yl)-7-fluorobenzo[b]thiophene-3-carbonitrile]
> 5.30 | > 5.30 | Nc1nc2c(-c3c(Cl)cc4c(N5CCCC6(CNCCO6)C5)nc(OC[C@@]56CCCN5C[C@H](F)C6)nc4c3F)ccc(F)c2s1 (stereo partly drawn) [compound 159, 4-(6-chloro-8-fluoro-2-(((2R,7aS)-2-fluorotetrahydro-1H-pyrrolizin-7a(5H)-yl)methoxy)-4-(1-oxa-4,8-diazaspiro[5.5]undecan-8-yl)quinazolin-7-yl)-7-fluorobenzo[d]thiazol-2-amine]
> 5.30 | > 5.30 | Nc1nc2c(-c3c(Cl)cc4c(N5CCNC6(CNC6)C5)nc(OC[C@@]56CCCN5C[C@H](F)C6)nc4c3F)ccc(F)c2s1 [compound 116, 4-(6-chloro-8-fluoro-2-(((2R,7aS)-2-fluorotetrahydro-1H-pyrrolizin-7a(5H)-yl)methoxy)-4-(2,5,8-triazaspiro[3.5]nonan-8-yl)quinazolin-7-yl)-7-fluorobenzo[d]thiazol-2-amine]
> 5.30 | > 5.30 | N#Cc1c(N)sc2c(F)ccc(-c3c(Cl)cc4c(N5CCCCC6(CN(C(=O)C(F)(F)F)C6)C5)nc(OC[C@@]56CCCN5C[C@H](F)C6)nc4c3F)c12 [compound 206, 2-amino-4-(6-chloro-8-fluoro-2-(((2R,7aS)-2-fluorotetrahydro-1H-pyrrolizin-7a(5H)-yl)methoxy)-4-(2-(2,2,2-trifluoroacetyl)-2,6-diazaspiro[3.6]decan-6-yl)quinazolin-7-yl)-7-fluorobenzo[b]thiophene-3-carbonitrile]
> 5.30 | > 5.30 | N#Cc1c(N)sc2c(F)ccc(-c3c(Cl)cc4c(N5CCCCC6(CN(C(=O)CC7COC7)C6)C5)nc(OC[C@@]56CCCN5C[C@H](F)C6)nc4c3F)c12 [compound 273, 2-amino-4-(6-chloro-8-fluoro-2-(((2R,7aS)-2-fluorotetrahydro-1H-pyrrolizin-7a(5H)-yl)methoxy)-4-(2-(2-(oxetan-3-yl)acetyl)-2,6-diazaspiro[3.6]decan-6-yl)quinazolin-7-yl)-7-fluorobenzo[b]thiophene-3-carbonitrile]
> 5.30 | > 5.30 | N#CN1CC2(C1)CN(c1nc(OC[C@@]34CCCN3C[C@H](F)C4)nc3c(F)c(-c4ccc(F)c5sc(N)nc45)c(Cl)cc13)CCO2 [compound 187, 8-(7-(2-amino-7-fluorobenzo[d]thiazol-4-yl)-6-chloro-8-fluoro-2-(((2R,7aS)-2-fluorotetrahydro-1H-pyrrolizin-7a(5H)-yl)methoxy)quinazolin-4-yl)-5-oxa-2,8-diazaspiro[3.5]nonane-2-carbonitrile]
> 5.30 | > 5.30 | N#Cc1c(N)sc2c(F)ccc(-c3c(Cl)cc4c(N5CCOC6(CN(C(=O)C7(C(F)F)COC7)C6)C5)nc(OC[C@@]56CCCN5C[C@H](F)C6)nc4c3F)c12 [compound 252, 2-amino-4-(6-chloro-4-(2-(3-(difluoromethyl)oxetane-3-carbonyl)-5-oxa-2,8-diazaspiro[3.5]nonan-8-yl)-8-fluoro-2-(((2R,7aS)-2-fluorotetrahydro-1H-pyrrolizin-7a(5H)-yl)methoxy)quinazolin-7-yl)-7-fluorobenzo[b]thiophene-3-carbonitrile]
> 5.30 | > 5.30 | N#Cc1c(N)sc2c(F)ccc(-c3c(Cl)cc4c(N5CC6(CN(C(=O)C7CC7(F)F)C6)C5)nc(OC[C@@]56CCCN5C[C@H](F)C6)nc4c3F)c12 (stereo partly drawn) [compound 219, 2-amino-4-(6-chloro-4-(6-(2,2-difluorocyclopropane-1-carbonyl)-2,6-diazaspiro[3.3]heptan-2-yl)-8-fluoro-2-(((2R,7aS)-2-fluorotetrahydro-1H-pyrrolizin-7a(5H)-yl)methoxy)quinazolin-7-yl)-7-fluorobenzo[b]thiophene-3-carbonitrile]
> 5.30 | > 5.30 | N#Cc1c(N)sc2c(F)ccc(-c3c(Cl)cc4c(N5CCCCC6(CN(C(=O)CC7CCO7)C6)C5)nc(OC[C@@]56CCCN5C[C@H](F)C6)nc4c3F)c12 (stereo partly drawn) [compound 203, 2-amino-4-(6-chloro-8-fluoro-2-(((2R,7aS)-2-fluorotetrahydro-1H-pyrrolizin-7a(5H)-yl)methoxy)-4-(2-(2-(oxetan-2-yl)acetyl)-2,6-diazaspiro[3.6]decan-6-yl)quinazolin-7-yl)-7-fluorobenzo[b]thiophene-3-carbonitrile]
> 5.30 | > 5.30 | N#Cc1c(N)sc2c(F)ccc(-c3c(Cl)cc4c(N5CCOC6(CN(C(=O)c7cn[nH]n7)C6)C5)nc(OC[C@@]56CCCN5C[C@H](F)C6)nc4c3F)c12 [compound 163, 4-(4-(2-(2H-1,2,3-triazole-4-carbonyl)-5-oxa-2,8-diazaspiro[3.5]nonan-8-yl)-6-chloro-8-fluoro-2-(((2R,7aS)-2-fluorotetrahydro-1H-pyrrolizin-7a(5H)-yl)methoxy)quinazolin-7-yl)-2-amino-7-fluorobenzo[b]thiophene-3-carbonitrile]
